{"source": "patent US8865675B2", "about": "“Compositions and methods for silencing apolipoprotein B” (Protiva Biotherapeutics, Inc., priority 2010, dated 2014)", "key": {"[1]": {"test_system": "liver ApoB mRNA", "test": "Liver ApoB mRNA knockdown after IV SNALP administration, branched DNA (QuantiGene) assay relative to GAPDH", "format": "in vivo, Balb/c mice", "details": "for ApoB silencing activity compared to SNALP containing C2K when administered at the same dose: 0.033 or 0.05 mg/kg IV, 48 h (Table 6); for KD50 compared to SNALP containing the C2K benchmark cationic lipid: 48 h (FIG. 2, FIG. 3); for ApoB knockdown relative to PBS control (%): 1:57 SNALP with ApoB-10164 siRNA, ApoB:GAPD, 48 h, n = 3", "experimental": "(§1) For dose response studies, SNALP formulations were administered by IV injection at 0.01 mg/kg, 0.033 mg/kg, or 0.1 mg/kg into female Balb/c mice (n=3 per group). Liver ApoB mRNA levels were evaluated at 48 hours after SNALP administration by a branched DNA assay (QuantiGene assay) to assess ApoB mRNA relative to the housekeeping gene GAPDH.\nas §1, with “Each” for “For dose response studies,”, “formulation (6:1 L:D) was” for “formulations were”, “intravenous (IV)” for “IV”, “at” for “at 0.01 mg/kg, 0.033 mg/kg, or”\nSNALP formulations were administered by IV injection at 0.05 mg/kg into female Balb/c mice (n=3 per group). Liver ApoB mRNA levels were evaluated at 48 hours after SNALP administration by a branched DNA assay (QuantiGene assay) to assess ApoB mRNA relative to the housekeeping gene GAPDH.\nFor these dose response studies, SNALP formulations were administered by IV injection at 0.05, 0.10, or 0.25 mg/kg for DLinDMA and at 0.01, 0.025, or 0.05 mg/kg for C2K or MC3 into female Balb/c mice (n=4 per group). Liver ApoB mRNA levels were evaluated at 48 hours after SNALP administration (Error bars=SD).\nSNALP formulations were administered by IV injection at 0.033 mg/kg or at 0.05 mg/kg into Balb/c mice (n=3 per group). Liver ApoB mRNA levels were evaluated at 48 hours after SNALP administration by a branched DNA assay (QuantiGene assay) to assess ApoB mRNA relative to the housekeeping gene GAPDH."}, "[2]": {"test": "Tolerability assessments of SNALP in mice (liver enzymes, body weight, neutrophil to lymphocyte ratio etc.)", "format": "in vivo"}, "[3]": {"details": "1:57 SNALP, 0.01, 0.033 or 0.1 mg/kg IV, female Balb/c mice, 48 h (FIG. 1, FIG. 3)"}, "[4]": {"details": "1:57 SNALP, 0.01, 0.033 or 0.1 mg/kg IV, female Balb/c mice"}}, "data": [{"compound": "CCCCC/C=C\\C/C=C\\CCCCCCCCC(CCCCCCCC/C=C\\C/C=C\\CCCCC)OCCCCN(C)C", "note": "[Compound 15, MC4 Ether]", "values": [{"measurement": "ApoB silencing activity compared to SNALP containing C2K when administered at the same dose", "setting": "[1]; 1:57 SNALP, Balb/c mice", "value": "unexpectedly improved ApoB silencing activity"}]}, {"compound": "CC/C=C\\C/C=C\\C/C=C\\CCCCCCCCC(CCCCCCCC/C=C\\C/C=C\\C/C=C\\CC)OCCCCN(C)C", "note": "[Compound 35, 4-((3Z,6Z,9Z,28Z,31Z,34Z)-heptatriaconta-3,6,9,28,31,34-hexaen-19-yloxy)-N,N-dimethylbutan-1-amine]", "values": [{"measurement": "ApoB silencing activity compared to SNALP containing C2K when administered at the same dose", "setting": "[1]; 1:57 SNALP, Balb/c mice", "value": "unexpectedly improved ApoB silencing activity"}]}, {"compound": "CCCCC/C=C\\C/C=C\\CCCCCCCCC(CCCCCCCC/C=C\\C/C=C\\CCCCC)OC(=O)CCCN(C)C", "note": "[Compound 1, (6Z,9Z,28Z,31Z)-heptatriaconta-6,9,28,31-tetraen-19-yl 4-(dimethylamino)butanoate]", "values": [{"measurement": "potency versus the corresponding DLinDMA or C2K SNALP formulations, comparison of KD50 values", "setting": "[1]; 1:57 SNALP containing siApoB-8 or siApoB-10, female Balb/c mice, 48 h (FIG. 6)", "value": "more potent"}, {"measurement": "ApoB silencing activity compared to SNALP containing the C2K benchmark cationic lipid", "setting": "[1]; [3]", "value": "improved ApoB silencing activity"}, {"measurement": "KD50 compared to SNALP containing the C2K benchmark cationic lipid", "setting": "[1]; [4]", "value": "substantially lower KD50 values"}, {"measurement": "ApoB silencing activity compared to SNALP containing C2K when administered at the same dose", "setting": "[1]; 1:57 SNALP, Balb/c mice", "value": "unexpectedly improved ApoB silencing activity"}, {"measurement": "potency in silencing ApoB expression in vivo compared to SNALP containing DLin-C2K-DMA (C2K) or DLinDMA", "setting": "[1]; 1:57 lipid particle", "value": "unexpectedly more potent"}]}, {"compound": "CC/C=C\\CCCN(CCCN(C)C)C(=O)OC(CCCCCCC/C=C\\C/C=C\\CCCCC)CCCCCCCCC/C=C\\C/C=C\\CCCCC", "note": "(stereo not shown) [Compound 28, (6Z,9Z,28Z,31Z)-heptatriaconta-6,9,28,31-tetraen-18-yl 3-(dimethylamino)propyl((Z)-hept-4-enyl)carbamate]", "values": [{"measurement": "ApoB silencing activity compared to SNALP containing C2K when administered at the same dose", "setting": "[1]; 1:57 SNALP, Balb/c mice", "value": "unexpectedly improved ApoB silencing activity"}]}, {"compound": "CCCCC/C=C\\C/C=C\\CCCCCCCCC(CCCCCCCC/C=C\\C/C=C\\CCCCC)OCCCN(C)C", "note": "[Compound 13, 3-((6Z,9Z,28Z,31Z)-heptatriaconta-6,9,28,31-tetraen-19-yloxy)-N,N-dimethylpropan-1-amine]", "values": [{"measurement": "ApoB silencing activity compared to SNALP containing the C2K benchmark cationic lipid", "setting": "[1]; 1:57 SNALP, 0.05 mg/kg IV, female Balb/c mice, 48 h (FIG. 5)", "value": "unexpectedly improved ApoB silencing activity"}, {"measurement": "ApoB silencing activity compared to SNALP containing C2K when administered at the same dose", "setting": "[1]; 1:57 SNALP, Balb/c mice", "value": "unexpectedly improved ApoB silencing activity"}]}, {"compound": "siApoB-10: APOB siRNA of sense strand SEQ ID NO: 4 and antisense strand SEQ ID NO: 11 with 2′OMe nucleotides (sense AGNGNCANCACACNNAANACC; antisense UAUUCAGUGUGAUGACACUUG; 2'OMe nucleotides, chemistry not fully specified)", "values": [{"measurement": "silencing activity of more highly 2′OMe-modified APOB siRNA relative to siApoB-8", "setting": "[1]; modifications increased from 7 in siApoB-8 to 13 in siApoB-10, 1:57 SNALP, Balb/c mice, 48 h (FIG. 6)", "value": "does not decrease activity"}]}, {"compound": "CC/C=C\\C/C=C\\C/C=C\\CCCCCCCCC(CCCCCCCC/C=C\\C/C=C\\C/C=C\\CC)OC(=O)CCCN(C)C", "note": "[Compound 4, LenMC3]", "values": [{"measurement": "ApoB silencing activity compared to SNALP containing the C2K benchmark cationic lipid", "setting": "[1]; [3]", "value": "improved ApoB silencing activity"}, {"measurement": "KD50 compared to SNALP containing the C2K benchmark cationic lipid", "setting": "[1]; [4]", "value": "substantially lower KD50 values"}, {"measurement": "ApoB silencing activity compared to SNALP containing C2K when administered at the same dose", "setting": "[1]; 1:57 SNALP, Balb/c mice", "value": "unexpectedly improved ApoB silencing activity"}]}, {"compound": "CCCCC/C=C\\C/C=C\\CCCCCCCCCC(CCCCCCC/C=C\\C/C=C\\CCCCC)OC(=O)N(CCCCCC)CCCN(C)C", "note": "(stereo not shown) [Compound 27, (6Z,9Z,28Z,31Z)-heptatriaconta-6,9,28,31-tetraen-18-yl 3-(dimethylamino)propyl(hexyl)carbamate]", "values": [{"measurement": "ApoB silencing activity compared to SNALP containing C2K when administered at the same dose", "setting": "[1]; 1:57 SNALP, Balb/c mice", "value": "unexpectedly improved ApoB silencing activity"}]}, {"compound": "CCC1CC1CC1CC1CC1CC1CCCCCCCCC1(CCCCCCCCC2CC2CC2CC2CC2CC2CC)OCC(CCN(C)C)O1", "note": "(stereo not shown) [Compound 46, CP-DLen-C2K-DMA]", "values": [{"measurement": "potency in silencing ApoB mRNA expression", "setting": "[1]; 1:57 SNALP, 0.01, 0.033 or 0.1 mg/kg IV, female Balb/c mice, 48 h (FIG. 3)", "value": "considerable potency"}, {"measurement": "body weight loss compared to mice administered SNALP containing C2K", "setting": "[2]; mouse, in vivo", "value": "less body weight loss"}, {"measurement": "increase in liver enzyme levels compared to mice administered SNALP containing C2K", "setting": "[2]; mouse, in vivo", "value": "lower increase in liver enzyme levels"}, {"measurement": "neutrophil to lymphocyte ratio compared to mice administered SNALP containing C2K", "setting": "[2]; mouse, in vivo", "value": "more favorable neutrophil to lymphocyte ratio"}, {"measurement": "toxicity profile compared to SNALP containing C2K", "setting": "[2]; various tolerability assessments in vivo", "value": "unexpectedly more favorable toxicity profile"}]}, {"compound": "CCCCC/C=C\\C/C=C\\CCCCCCCCC(CCCCCCCC/C=C\\C/C=C\\CCCCC)OC(=O)N(C)CCCN(C)C", "note": "[Compound 10, MC3MC]", "values": [{"measurement": "ApoB knockdown relative to PBS control (%)", "setting": "[1]; 0.033 mg/kg IV, Balb/c mice", "value": "−50", "unit": "%"}]}, {"compound": "(6Z,9Z,28Z,31Z)-heptatriaconta-6,9,28,31-tetraen-18-yl 2-(dimethylamino)ethyl(ethyl)carbamate [Compound 29]", "values": [{"measurement": "ApoB knockdown relative to PBS control (%)", "setting": "[1]; 0.05 mg/kg IV, Balb/c mice", "value": "−59", "unit": "%"}]}, {"compound": "CCCCC/C=C\\C/C=C\\C/C=C\\CCCCCC(CCCCC/C=C\\C/C=C\\C/C=C\\CCCCC)OC(=O)CCCN(C)C", "note": "[Compound 8, γ-LenMC3]", "values": [{"measurement": "ApoB silencing activity compared to SNALP containing the C2K benchmark cationic lipid", "setting": "[1]; [3]", "value": "improved ApoB silencing activity"}, {"measurement": "KD50 compared to SNALP containing the C2K benchmark cationic lipid", "setting": "[1]; [4]", "value": "substantially lower KD50 values"}, {"measurement": "ApoB silencing activity compared to SNALP containing C2K when administered at the same dose", "setting": "[1]; 1:57 SNALP, Balb/c mice", "value": "unexpectedly improved ApoB silencing activity"}]}]}
